Measurements published in ChEMBL document CHEMBL1914426, “Phospshoinositide 3-kinase (PI3K)/mammalian target of rapamycin (mTOR) dual inhibitors: discovery and structure-activity relationships of a series of quinoline and quinoxaline derivatives” (J Med Chem, 2011).

Key:
[1] = molecular target: T1, Phosphatidylinositol 4,5-bisphosphate 3-kinase catalytic subunit alpha isoform (Homo sapiens, UniProt P42336)
[2] = molecular target: T1, Phosphatidylinositol 4,5-bisphosphate 3-kinase catalytic subunit alpha isoform; remark: listed apart in the source
[3] = molecular target: Phosphatidylinositol 4,5-bisphosphate 3-kinase catalytic subunit beta isoform (Homo sapiens, UniProt P42338)
Sequence of Phosphatidylinositol 4,5-bisphosphate 3-kinase catalytic subunit beta isoform (P42338 whole entry, canonical isoform): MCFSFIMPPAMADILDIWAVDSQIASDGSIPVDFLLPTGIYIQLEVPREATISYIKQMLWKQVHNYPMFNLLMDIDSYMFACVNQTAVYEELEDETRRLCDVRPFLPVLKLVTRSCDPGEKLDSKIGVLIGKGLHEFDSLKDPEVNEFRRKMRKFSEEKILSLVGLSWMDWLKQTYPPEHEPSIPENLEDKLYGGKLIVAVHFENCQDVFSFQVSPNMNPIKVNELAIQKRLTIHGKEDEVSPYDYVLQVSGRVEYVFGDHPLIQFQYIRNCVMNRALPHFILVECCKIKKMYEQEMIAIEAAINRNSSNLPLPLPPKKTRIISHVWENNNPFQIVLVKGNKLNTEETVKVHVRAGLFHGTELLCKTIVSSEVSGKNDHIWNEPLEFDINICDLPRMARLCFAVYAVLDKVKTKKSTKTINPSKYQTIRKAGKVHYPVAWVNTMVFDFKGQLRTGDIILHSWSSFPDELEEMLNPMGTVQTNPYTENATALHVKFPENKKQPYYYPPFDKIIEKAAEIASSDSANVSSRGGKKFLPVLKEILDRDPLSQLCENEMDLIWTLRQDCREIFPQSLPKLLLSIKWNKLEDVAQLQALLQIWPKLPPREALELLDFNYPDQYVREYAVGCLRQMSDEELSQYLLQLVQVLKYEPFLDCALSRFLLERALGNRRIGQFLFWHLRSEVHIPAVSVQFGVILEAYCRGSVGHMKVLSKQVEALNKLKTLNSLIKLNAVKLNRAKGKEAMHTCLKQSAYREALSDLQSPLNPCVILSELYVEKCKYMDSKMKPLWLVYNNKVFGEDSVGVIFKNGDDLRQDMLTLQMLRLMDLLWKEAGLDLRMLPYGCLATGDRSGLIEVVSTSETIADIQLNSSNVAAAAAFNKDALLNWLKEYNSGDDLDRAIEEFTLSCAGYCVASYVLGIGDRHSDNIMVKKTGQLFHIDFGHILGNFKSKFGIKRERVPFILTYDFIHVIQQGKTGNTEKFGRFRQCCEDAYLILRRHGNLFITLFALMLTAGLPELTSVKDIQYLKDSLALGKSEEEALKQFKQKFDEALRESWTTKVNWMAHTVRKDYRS

[4] = molecular target: Phosphatidylinositol 4,5-bisphosphate 3-kinase catalytic subunit gamma isoform (Homo sapiens, UniProt P48736); set-up: species or system Sf9
Sequence of Phosphatidylinositol 4,5-bisphosphate 3-kinase catalytic subunit gamma isoform (P48736 whole entry, canonical isoform): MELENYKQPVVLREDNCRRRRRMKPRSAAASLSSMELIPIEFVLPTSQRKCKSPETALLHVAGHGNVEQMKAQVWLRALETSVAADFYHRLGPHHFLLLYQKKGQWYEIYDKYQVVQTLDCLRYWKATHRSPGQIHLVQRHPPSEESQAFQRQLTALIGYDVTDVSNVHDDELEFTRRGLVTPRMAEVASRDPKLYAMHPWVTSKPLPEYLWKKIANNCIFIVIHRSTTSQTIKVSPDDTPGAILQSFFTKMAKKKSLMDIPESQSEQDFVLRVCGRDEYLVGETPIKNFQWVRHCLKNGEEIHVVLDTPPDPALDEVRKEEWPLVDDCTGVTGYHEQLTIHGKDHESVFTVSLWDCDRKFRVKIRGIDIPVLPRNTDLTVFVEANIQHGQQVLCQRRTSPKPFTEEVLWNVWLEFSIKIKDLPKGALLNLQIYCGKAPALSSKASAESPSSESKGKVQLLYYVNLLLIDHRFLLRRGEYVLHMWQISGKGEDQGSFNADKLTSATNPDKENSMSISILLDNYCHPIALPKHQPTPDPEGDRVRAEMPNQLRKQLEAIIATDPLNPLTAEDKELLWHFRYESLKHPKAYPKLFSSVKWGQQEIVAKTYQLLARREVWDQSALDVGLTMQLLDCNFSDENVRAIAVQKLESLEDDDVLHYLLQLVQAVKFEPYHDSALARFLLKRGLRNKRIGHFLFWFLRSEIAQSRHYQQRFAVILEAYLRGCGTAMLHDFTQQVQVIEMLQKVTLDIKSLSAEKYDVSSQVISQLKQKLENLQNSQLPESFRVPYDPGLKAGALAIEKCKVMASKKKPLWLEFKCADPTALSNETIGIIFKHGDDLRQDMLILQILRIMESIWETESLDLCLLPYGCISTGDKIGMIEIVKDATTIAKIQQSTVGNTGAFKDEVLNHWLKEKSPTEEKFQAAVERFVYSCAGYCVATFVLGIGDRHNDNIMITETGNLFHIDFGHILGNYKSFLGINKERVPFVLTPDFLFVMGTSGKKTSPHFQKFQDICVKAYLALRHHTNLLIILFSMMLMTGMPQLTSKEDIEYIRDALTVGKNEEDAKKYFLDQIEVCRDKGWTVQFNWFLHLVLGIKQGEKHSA

[5] = molecular target: T2, Phosphatidylinositol 4,5-bisphosphate 3-kinase catalytic subunit delta isoform (Homo sapiens, UniProt O00329)
T2 sequence (O00329 whole entry): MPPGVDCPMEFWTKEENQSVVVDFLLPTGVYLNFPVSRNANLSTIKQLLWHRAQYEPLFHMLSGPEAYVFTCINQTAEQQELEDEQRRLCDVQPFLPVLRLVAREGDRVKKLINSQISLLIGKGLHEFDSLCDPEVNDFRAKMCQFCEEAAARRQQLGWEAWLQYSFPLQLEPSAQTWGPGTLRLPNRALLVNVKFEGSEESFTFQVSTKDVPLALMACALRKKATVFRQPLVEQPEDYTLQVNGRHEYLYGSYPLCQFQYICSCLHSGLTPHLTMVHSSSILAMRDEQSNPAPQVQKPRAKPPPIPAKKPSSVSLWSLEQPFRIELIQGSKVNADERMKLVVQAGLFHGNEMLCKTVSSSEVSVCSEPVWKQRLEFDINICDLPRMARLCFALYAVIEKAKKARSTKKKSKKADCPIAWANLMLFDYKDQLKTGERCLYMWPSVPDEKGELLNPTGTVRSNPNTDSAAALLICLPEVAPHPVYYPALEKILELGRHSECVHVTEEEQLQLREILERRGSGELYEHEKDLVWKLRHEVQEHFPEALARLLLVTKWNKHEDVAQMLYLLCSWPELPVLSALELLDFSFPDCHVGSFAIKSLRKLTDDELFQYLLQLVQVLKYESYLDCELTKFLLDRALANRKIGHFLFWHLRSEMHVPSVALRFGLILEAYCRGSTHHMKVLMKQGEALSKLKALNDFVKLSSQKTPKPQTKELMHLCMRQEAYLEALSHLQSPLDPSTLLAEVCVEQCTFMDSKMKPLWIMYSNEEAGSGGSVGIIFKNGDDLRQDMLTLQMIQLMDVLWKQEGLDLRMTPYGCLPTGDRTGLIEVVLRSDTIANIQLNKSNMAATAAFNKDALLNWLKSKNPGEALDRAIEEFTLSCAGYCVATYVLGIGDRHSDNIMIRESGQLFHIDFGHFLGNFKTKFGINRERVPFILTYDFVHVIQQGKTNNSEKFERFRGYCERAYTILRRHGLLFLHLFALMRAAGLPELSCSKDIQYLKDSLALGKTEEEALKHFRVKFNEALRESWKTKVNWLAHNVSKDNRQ

in vivo [6] = conditions: nude CD1, mouse, plasma, po, 0.3 mg/kg
Description: Plasma concentration in nude CD1 mouse at 0.3 mg/kg, po measured after 3 hrs

[7] = molecular target: Phosphatidylinositol 3-kinase catalytic subunit type 3 (Homo sapiens, UniProt Q8NEB9)
Sequence of Phosphatidylinositol 3-kinase catalytic subunit type 3 (Q8NEB9 whole entry): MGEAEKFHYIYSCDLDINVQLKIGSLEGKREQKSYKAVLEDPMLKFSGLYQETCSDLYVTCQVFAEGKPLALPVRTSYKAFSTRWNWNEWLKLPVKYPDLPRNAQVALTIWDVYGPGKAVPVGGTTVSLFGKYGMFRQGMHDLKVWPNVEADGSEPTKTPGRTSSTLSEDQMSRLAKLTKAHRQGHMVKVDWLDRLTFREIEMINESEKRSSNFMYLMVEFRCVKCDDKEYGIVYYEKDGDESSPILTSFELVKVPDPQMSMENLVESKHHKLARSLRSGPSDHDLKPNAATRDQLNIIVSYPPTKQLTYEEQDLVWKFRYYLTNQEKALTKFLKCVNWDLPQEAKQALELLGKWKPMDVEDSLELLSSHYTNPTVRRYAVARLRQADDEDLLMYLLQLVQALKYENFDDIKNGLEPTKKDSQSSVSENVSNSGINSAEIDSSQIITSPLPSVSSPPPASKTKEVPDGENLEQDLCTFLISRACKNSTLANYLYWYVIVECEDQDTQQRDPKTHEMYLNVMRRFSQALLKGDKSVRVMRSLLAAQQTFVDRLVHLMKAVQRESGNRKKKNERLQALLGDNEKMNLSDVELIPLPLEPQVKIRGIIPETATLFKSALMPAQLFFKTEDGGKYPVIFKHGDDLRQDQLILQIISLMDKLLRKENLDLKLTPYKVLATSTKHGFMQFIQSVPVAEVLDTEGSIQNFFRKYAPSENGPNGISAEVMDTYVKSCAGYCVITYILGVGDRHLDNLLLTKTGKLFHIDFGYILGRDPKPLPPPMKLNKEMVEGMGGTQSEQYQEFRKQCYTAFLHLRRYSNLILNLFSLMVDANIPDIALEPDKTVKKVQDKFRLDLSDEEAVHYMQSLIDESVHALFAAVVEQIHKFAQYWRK
Description: Inhibition of human VPS34 assessed as ADP formation using ATP by fluorescence-based immunoassay

Mus musculus [8] = species: Mus musculus; assay: animal or person; conditions: CD1, po, 3 h, read-out: INH
in vivo [9] = conditions: Sprague-Dawley, rat, iv, 1 mg/kg
Description: Volume of distribution at steady-state in Sprague-Dawley rat at 1 mg/kg, iv

in vitro [10] = conditions: rat, liver microsomes
Description: Clearance in rat liver microsomes assessed as compound remaining at 1 uM after 30 mins

Rattus norvegicus = species: Rattus norvegicus; conditions: in vivo, iv, 1 mg/kg
Description: Hepatic blood flow in Sprague-Dawley rat 1 mg/kg, iv

in vivo [11] = conditions: Sprague-Dawley, rat, iv, 1 mg/kg; remark: listed apart in the source
Description: Clearance in Sprague-Dawley rat at 1 mg/kg, iv

Mus musculus [12] = species: Mus musculus; assay: animal or person; conditions: CD1, po, 3 h, read-out: INH; remark: listed apart in the source
in vivo [13] = conditions: nude CD1, mouse, plasma, po, 1 mg/kg
Description: Plasma concentration in nude CD1 mouse at 1 mg/kg, po measured after 3 hrs

in vitro [14] = conditions: human, liver microsomes
Description: Clearance in human liver microsomes assessed as compound remaining at 1 uM after 30 mins

[15] = Oral bioavailability in Sprague-Dawley rat at 1 mg/kg; type: ADME, organism-based; conditions: in vivo
Mus musculus [16] = species: Mus musculus; assay: animal or person; conditions: CD1, po, 3 h, read-out: INH; remark: listed apart in the source
in vivo [17] = conditions: nude CD1, mouse, plasma, po, 3 mg/kg
Description: Plasma concentration in nude CD1 mouse at 3 mg/kg, po measured after 3 hrs

[18] = AUC in Sprague-Dawley rat at 1 mg/kg, po; type: ADME, organism-based; set-up: dose 1 mg/kg, route oral; conditions: plasma
in vivo [19] = conditions: Sprague-Dawley, rat, iv, 1 mg/kg; remark: listed apart in the source
Description: Mean residence time in Sprague-Dawley rat at 1 mg/kg, iv

Mus musculus [20] = assay: Inhibition of PI3K-induced Akt phosphorylation at Ser 473 in HGF-stimulated nude CD1 mouse at 3 mg/kg, po measured after 4 hrs by quantitative electrochemiluminescence immunoassay; type: functional; conditions: CD1, 4 h
[21] = Plasma concentration in nude CD1 mouse at 3 mg/kg, po measured after 4 hrs; type: ADME, organism-based; set-up: dose 3 mg/kg, route oral
[22] = Plasma concentration in nude CD1 mouse at 0.3 mg/kg, po measured after 4 hrs; type: ADME, organism-based; set-up: dose 0.3 mg/kg, route oral
[23] = molecular target: DNA-dependent protein kinase catalytic subunit (Homo sapiens, UniProt P78527)
Description: Inhibition of DNA-PK using fluorescein-p53 peptide as substrate after 1 hr by TR-FRET enzyme assay

[24] = molecular target: Serine/threonine-protein kinase mTOR (Homo sapiens, UniProt P42345)
Description: Inhibition of mTOR using GFP-tagged 4E-BP1 after 1 hr by spectrophotometric analysis

[25] = Plasma concentration in nude CD1 mouse at 1 mg/kg, po measured after 4 hrs; type: ADME, organism-based; set-up: dose 1 mg/kg, route oral
Mus musculus [26] = assay: Inhibition of PI3K-induced Akt phosphorylation at Ser 473 in HGF-stimulated nude CD1 mouse at 0.3 mg/kg, po measured after 4 hrs by quantitative electrochemiluminescence immunoassay; type: functional; conditions: CD1, 4 h
Mus musculus [27] = assay: Inhibition of PI3K-induced Akt phosphorylation at Ser 473 in HGF-stimulated nude CD1 mouse at 1 mg/kg, po measured after 4 hrs by quantitative electrochemiluminescence immunoassay; type: functional; conditions: CD1, 4 h

T1 sequence (P42336 whole entry, canonical isoform): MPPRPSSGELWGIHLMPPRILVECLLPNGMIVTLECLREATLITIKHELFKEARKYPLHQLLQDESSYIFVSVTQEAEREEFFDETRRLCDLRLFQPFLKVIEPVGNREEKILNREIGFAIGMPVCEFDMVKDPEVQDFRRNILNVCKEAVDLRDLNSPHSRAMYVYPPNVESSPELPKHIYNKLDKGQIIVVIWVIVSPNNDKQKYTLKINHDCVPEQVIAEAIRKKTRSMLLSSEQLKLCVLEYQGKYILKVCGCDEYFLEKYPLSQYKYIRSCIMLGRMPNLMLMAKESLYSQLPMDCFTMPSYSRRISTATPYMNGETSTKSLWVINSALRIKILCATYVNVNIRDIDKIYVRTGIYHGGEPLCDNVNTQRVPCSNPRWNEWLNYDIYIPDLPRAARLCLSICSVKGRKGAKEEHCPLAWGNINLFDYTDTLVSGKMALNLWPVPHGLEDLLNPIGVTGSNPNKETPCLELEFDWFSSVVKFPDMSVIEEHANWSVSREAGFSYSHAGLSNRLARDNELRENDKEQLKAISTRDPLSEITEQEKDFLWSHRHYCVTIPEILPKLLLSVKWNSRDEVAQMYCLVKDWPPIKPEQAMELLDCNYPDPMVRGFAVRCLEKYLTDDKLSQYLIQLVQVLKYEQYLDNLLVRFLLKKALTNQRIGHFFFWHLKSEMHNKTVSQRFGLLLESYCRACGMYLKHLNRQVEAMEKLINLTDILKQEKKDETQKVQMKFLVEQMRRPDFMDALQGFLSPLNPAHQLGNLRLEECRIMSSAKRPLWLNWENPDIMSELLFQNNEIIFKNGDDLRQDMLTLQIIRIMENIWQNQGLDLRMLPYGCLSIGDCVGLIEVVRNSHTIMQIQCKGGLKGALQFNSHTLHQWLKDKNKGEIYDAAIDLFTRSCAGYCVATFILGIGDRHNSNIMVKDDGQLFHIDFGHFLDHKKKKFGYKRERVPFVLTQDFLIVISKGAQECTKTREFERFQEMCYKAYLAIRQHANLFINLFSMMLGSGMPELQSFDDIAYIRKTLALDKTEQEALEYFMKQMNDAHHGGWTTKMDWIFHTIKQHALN

## O=S(=O)(Nc1cc(-c2ccc3nccc(-c4ccccc4)c3c2)cnc1Cl)c1ccc(F)cc1
[1]
  IC50: 127 nM
[2]
  Ki: 1.3 nM

## CN(C)c1ccc(-c2ccnc3ccc(-c4cnc(Cl)c(NS(=O)(=O)c5ccc(F)cc5)c4)cc23)cc1
[1]
  IC50: 61 nM
[2]
  Ki: 0.7 nM

## O=S(=O)(Nc1cc(-c2ccc3ncc(NCCN4CCOCC4)nc3c2)cnc1Cl)c1ccc(F)cc1
[3]
  IC50: 9.8 nM
[4]
  IC50: 16 nM
[5]
  IC50: 6 nM

## O=S(=O)(Nc1cc(-c2cnc3ncccc3c2)cnc1Cl)c1ccc(F)cc1
[2]
  Ki: 856 nM

## O=S(=O)(Nc1cc(-c2ccc3ncc(N4CCC(F)(F)CC4)nc3c2)cnc1Cl)c1ccc(F)cc1
[1]
  IC50: 189 nM
[2]
  Ki: 0.6 nM

## O=S(=O)(Nc1cc(-c2ccc3nccc(-c4cccnc4)c3c2)cnc1Cl)c1ccc(F)cc1
In vivo [6]
  concentration at 3 h: 210 ng/mL
[7]
  IC50: 2.9 nM
[3]
  IC50: 10 nM
[4]
  IC50: 7.7 nM
Mus musculus [8]
  inhibition in vivo at 3 mg/kg: 99%
In vivo [9]
  Vd: 0.81 L/kg
In vitro [10]
  microsomal CLint at 0.5 h, 1 µM: 33 µL/min/mg
[5]
  IC50: 5.9 nM
Rattus norvegicus
  QH: 0.6%
In vivo [11]
  clearance: 2.17 mL/min/kg
Mus musculus [12]
  inhibition in vivo at 1 mg/kg: 97%
In vivo [13]
  concentration at 3 h: 899 ng/mL
In vitro [14]
  microsomal CLint at 0.5 h, 1 µM: < 14 µL/min/mg
[15]
  bioavailability: 73%
Mus musculus [16]
  inhibition in vivo at 0.3 mg/kg: 70%
In vivo [17]
  concentration at 3 h: 2330 ng/mL
[18]
  AUC: 5630 ng·h/mL
In vivo [19]
  MRT: 6.3 h

## COCCNc1ccnc2ccc(-c3cnc(Cl)c(NS(=O)(=O)c4ccc(F)cc4)c3)cc12
[1]
  IC50: 1020 nM
[2]
  Ki: 69 nM

## O=S(=O)(Nc1cc(-c2ccc3nccc(N4CCN(Cc5ccncc5)CC4)c3c2)cnc1Cl)c1ccc(F)cc1
[1]
  IC50: 18 nM
[3]
  IC50: 15 nM
[4]
  IC50: 6.5 nM
In vitro [10]
  microsomal CLint at 0.5 h, 1 µM: > 399 µL/min/mg
[5]
  IC50: 6 nM
Rattus norvegicus
  QH: 0.6%
In vitro [14]
  microsomal CLint at 0.5 h, 1 µM: 247 µL/min/mg
[2]
  IC50: 4.6 nM
  Ki: 0.9 nM

## O=S(=O)(Nc1cc(-c2ccc3nnccc3c2)cnc1Cl)c1ccc(F)cc1
[1]
  IC50: 1920 nM
[2]
  Ki: 38 nM

## O=S(=O)(Nc1cc(-c2ccc3ncc(N4C[C@H]5CC[C@H](CC5)C4)nc3c2)cnc1Cl)c1ccc(F)cc1
[1]
  IC50: 247 nM
[2]
  Ki: 1 nM

## O=S(=O)(Nc1cc(-c2ccc3ncc(NCC4CCCNC4)nc3c2)cnc1Cl)c1ccc(F)cc1 (centres undefined)
[1]
  IC50: 2710 nM
[2]
  Ki: 3.3 nM

## O=S(=O)(Nc1cc(-c2ccc3ncc(N4CCOCC4)nc3c2)cnc1Cl)c1ccc(F)cc1
Mus musculus [20]
  inhibition in vivo at 3 mg/kg: 97%
[21]
  concentration at 4 h: 4470 ng/mL
[7]
  IC50: 5 nM
[4]
  IC50: 2.4 nM
[22]
  concentration at 4 h: 448 ng/mL
[23]
  IC50: 3.4 nM
In vivo [9]
  Vd: 0.19 L/kg
In vitro [10]
  microsomal CLint at 0.5 h, 1 µM: 16 µL/min/mg
[5]
  IC50: 4.4 nM
Rattus norvegicus
  QH: 0.6%
In vivo [11]
  clearance: 0.333 mL/min/kg
[24]
  IC50: 5 nM
[25]
  concentration at 4 h: 1730 ng/mL
In vitro [14]
  microsomal CLint at 0.5 h, 1 µM: < 14 µL/min/mg
[15]
  bioavailability: 88%
Mus musculus [26]
  inhibition in vivo at 0.3 mg/kg: 55%
[18]
  AUC: 29600 ng·h/mL
In vivo [19]
  MRT: 9 h
Mus musculus [27]
  inhibition in vivo at 1 mg/kg: 86%

## O=S(=O)(Nc1cc(-c2ccc3ncc(N4CCCCC4)nc3c2)cnc1Cl)c1ccc(F)cc1
[1]
  IC50: 128 nM
[2]
  Ki: 0.9 nM

## O=S(=O)(Nc1cc(-c2ccc3nccc(N4CCN(Cc5ccccc5)CC4)c3c2)cnc1Cl)c1ccc(F)cc1
[1]
  IC50: 136 nM
[2]
  Ki: 1 nM

## CN(C)c1ccnc2ccc(-c3cnc(Cl)c(NS(=O)(=O)c4ccc(F)cc4)c3)cc12
[1]
  IC50: 223 nM
[2]
  Ki: 5.7 nM

## O=S(=O)(Nc1cc(-c2cc3cccnc3cn2)cnc1Cl)c1ccc(F)cc1
[1]
  IC50: > 10000 nM
[2]
  Ki: 200 nM

## O=S(=O)(Nc1cc(-c2ccc3nccc(-c4ccncc4)c3c2)cnc1Cl)c1ccc(F)cc1
In vivo [6]
  concentration at 3 h: 326 ng/mL
[7]
  IC50: 5.3 nM
[3]
  IC50: 15 nM
[4]
  IC50: 13 nM
Mus musculus [8]
  inhibition in vivo at 3 mg/kg: > 99%
In vivo [9]
  Vd: 0.52 L/kg
In vitro [10]
  microsomal CLint at 0.5 h, 1 µM: 20 µL/min/mg
[5]
  IC50: 6 nM
Rattus norvegicus
  QH: 0.6%
In vivo [11]
  clearance: 0.667 mL/min/kg
Mus musculus [12]
  inhibition in vivo at 1 mg/kg: 98%
[24]
  IC50: 0.41 nM
In vivo [13]
  concentration at 3 h: 950 ng/mL
In vitro [14]
  microsomal CLint at 0.5 h, 1 µM: < 14 µL/min/mg
[15]
  bioavailability: 70%
Mus musculus [16]
  inhibition in vivo at 0.3 mg/kg: 89%
In vivo [17]
  concentration at 3 h: 2470 ng/mL
[18]
  AUC: 14700 ng·h/mL
In vivo [19]
  MRT: 15 h

## CC(C)N1CCN(c2cnc3ccc(-c4cnc(Cl)c(NS(=O)(=O)c5ccc(F)cc5)c4)cc3n2)CC1
Mus musculus [20]
  inhibition in vivo at 3 mg/kg: 95%
[1]
  IC50: 17 nM
[21]
  concentration at 4 h: 1790 ng/mL
[4]
  IC50: 13 nM
[22]
  concentration at 4 h: 155 ng/mL
In vivo [9]
  Vd: 0.4 L/kg
In vitro [10]
  microsomal CLint at 0.5 h, 1 µM: 32 µL/min/mg
[5]
  IC50: 5.6 nM
Rattus norvegicus
  QH: 0.6%
In vivo [11]
  clearance: 1.33 mL/min/kg
[24]
  IC50: 37 nM
[25]
  concentration at 4 h: 417 ng/mL
In vitro [14]
  microsomal CLint at 0.5 h, 1 µM: 31 µL/min/mg
[15]
  bioavailability: 72%
Mus musculus [26]
  inhibition in vivo at 0.3 mg/kg: 50%
[2]
  Ki: 0.8 nM
[18]
  AUC: 10800 ng·h/mL
In vivo [19]
  MRT: 5.4 h
Mus musculus [27]
  inhibition in vivo at 1 mg/kg: 86%

## O=S(=O)(Nc1cc(-c2ccc3nccc(N4CCC(O)CC4)c3c2)cnc1Cl)c1ccc(F)cc1
[1]
  IC50: 150 nM
[2]
  Ki: 0.9 nM

## O=S(=O)(Nc1cc(-c2ccc3ncccc3c2)cnc1Cl)c1ccc(F)cc1
[1]
  IC50: 377 nM
[2]
  Ki: 2.1 nM
